Laboratory results from article PMC10667816, “A Cell‐Penetrant Peptide Disrupting the Transcription Factor CP2c Complexes Induces Cancer‐Specific Synthetic Lethality” (Advanced Science, 2023).
Where a SMILES comes first, the peptide text is derived from it.

What was measured:
[1] = test system: CP2c transcriptional targets (FN1, OCT4, and SNAI2) in HepG2 cells; test: RT‐qPCR transcription inhibition of CP2c targets; type: cell-based, human; conditions: summary for both cell lines, 36 h after treatment; read-out: average TI50 (50% transcriptional inhibition) values of the three CP2c targets
Procedure: To quantify mRNA expression of the gene of interest, cells were harvested, and total cellular RNA was extracted using Qiazol reagent (Qiagen, 79306). Purified RNA was dissolved in Diethyl pyrocarbonate (DEPC) water. Reverse transcription was performed using a High‐Capacity cDNA reverse transcription kit (Toyobo, FSQ‐201) in the presence of 400 ng of total RNA and 10 pmol random hexamer. PCR was performed using rTaq Plus 5X PCR master mix (Elpis‐Biotech, EBT‐1319) and the SYBR green Master Mix Kit. Amplifications were performed using a Light cycler 1.5 real‐time PCR system.^[ [43] ^] The relative mRNA expression levels were determined using the 2(−ΔCt) method, with GAPDH transcript levels serving as an internal control. Errors were calculated from at least two independent experiments. Oligonucleotide primers used in RT–qPCR are listed in Table S2 (Supporting Information).

[2] = molecular target: T1, endogenous nuclear and cytoplasmic CP2c complexes (Homo sapiens, UniProt Q12800); test: DSP crosslinking‐Western blot of endogenous CP2c complexes; type: cell-based; conditions: DSP XL‐WB and WB with new protein synthesis inhibition
T1 construct: dissociated all endogenous nuclear and cytoplasmic CP2c complexes; endogenous in cells
Procedure: Cell extracts were prepared using lysis buffer (50 mM Tris‐HCl, pH 7.4, 150 mM NaCl, 1 mM EDTA, 0.1% triton X‐100, and 1 mM PMSF). The cell extracts were separated by SDS‐PAGE and electro‐blotted onto polyvinylidene difluoride (PVDF) membranes (GE healthcare, 10600069). For slot blotting, the cell extracts were blotted onto nitrocellulose (NC) membranes (GE healthcare, 10484059) using a Bio‐Dot (Bio‐Rad, 1706542). Typically, membranes were blocked with 5% non‐fat dry milk in a solution of 0.1% Tween 20, and with 5% BSA in case of biotin blotting. Membranes were incubated overnight at 4 °C with appropriate dilutions of the primary antibodies (listed in Table S4, Supporting Information) after blocking. The blots were incubated for 1 h at room temperature with the respective HRP‐conjugated secondary antibodies (listed in Table S4, Supporting Information). Polyclonal ACTB antibody was used as a loading control for WB. […] Relative amounts of proteins were quantified using Image J (ver. 1.51) program.
To determine DNA‐free CP2c containing complexes, live cells were washed twice with the 2.5 mM sodium phosphate buffer, pH 7.4, crosslinked using 2 mM DSP in PBS for 3 h on ice, and crosslinking was terminated with 50 mM Tris‐HCl, pH 7.4, for 15 min at room temperature. […] Crosslinked samples were analyzed by pulldown assay or mass spectrometry.

T1 sequence (Q12800 whole entry, one chain of several): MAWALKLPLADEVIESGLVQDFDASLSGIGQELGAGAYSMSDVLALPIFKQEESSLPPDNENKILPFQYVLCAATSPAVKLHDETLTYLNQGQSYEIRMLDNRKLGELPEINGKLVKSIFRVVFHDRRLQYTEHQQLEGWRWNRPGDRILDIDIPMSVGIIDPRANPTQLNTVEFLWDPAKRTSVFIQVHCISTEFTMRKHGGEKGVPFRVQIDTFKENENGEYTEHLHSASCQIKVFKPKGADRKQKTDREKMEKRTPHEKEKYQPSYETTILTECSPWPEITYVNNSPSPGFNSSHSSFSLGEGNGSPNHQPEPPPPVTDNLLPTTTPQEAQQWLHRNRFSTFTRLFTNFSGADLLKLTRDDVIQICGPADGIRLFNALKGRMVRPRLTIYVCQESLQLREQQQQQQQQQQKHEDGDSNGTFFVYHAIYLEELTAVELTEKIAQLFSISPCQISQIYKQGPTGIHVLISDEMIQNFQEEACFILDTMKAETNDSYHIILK

With `CC(=O)N[C@@H](CC(N)=O)C(=O)N[C@@H](Cc1ccc(O)cc1)C(=O)N1CCC[C@H]1C(=O)N[C@@H](CCC(N)=O)C(=O)N[C@@H](CCCNC(=N)N)C(=O)N1CCC[C@H]1C(=O)N[C@@H](CS)C(=O)N[C@@H](CCCNC(=N)N)C(=O)NCC(=O)N[C@@H](CC(=O)O)C(=O)N[C@@H](CCCCN)C(=O)NCC(=O)N1CCC[C@H]1C(=O)N[C@@H](CC(=O)O)C(=O)N[C@@H](CS)C(N)=O` [ACP52C] (Ac-NYPQRPCRGDKGPDC-NH2) the IC50 [1] was 35 to 40 µM and the “dissociation of endogenous CP2c complexes” value [2] was “readily dissociated all endogenous nuclear and cytoplasmic CP2c complexes”.
